From article PMC6001238, “Iterative Chemical Engineering of Vancomycin Leads to Novel Vancomycin Analogs With a High in Vitro Therapeutic Index” (Frontiers in Microbiology, 2018)
Converted amounts (≈) assume the structure as drawn. Like-named read-outs stand apart in the source and are kept apart here.

Key:
E. faecalis VRE 53 = assay: MIC, broth microdilution, vancomycin-resistant E. faecalis VRE 53 (VanA); type: cell-based, Enterococcus faecalis; conditions: for MICvanc/MICi / MIC-fold improvement vs. vancomycin: ratio of MIC of vancomycin and MIC of analogue; for MIC: read-out: MIC; for MIC-fold improvement vs. vancomycin: VRE 53
Outline: (§1)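 Inhibitory concentrations were read by the CLSI broth microdilution procedure, with water and sterile broth as controls. One experiment added vancomycin (10 μM final) together with each analogue or reference antibiotic.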

B. subtilis PSB3 = assay: MIC, broth microdilution, B. subtilis PSB3; type: cell-based, Bacillus subtilis; conditions: for MICvanc/MICi: ratio of MIC of vancomycin and MIC of analogue
Procedure: (§2) The minimum inhibitory concentration (MIC) was determined using the broth microdilution method according to the antimicrobial susceptibility testing standards of the clinical and laboratory standards institute ([Clinical and Laboratory Standards Institute [CLSI], 2012]). Ultrapure water and non-inoculated broth were used as controls. In one case, a final concentration of 10 μM vancomycin was included with the vancomycin analog or control antibiotic.

E. coli XL-1 blue MRF' = assay: MIC, broth microdilution, E. coli XL-1 blue MRF'; type: cell-based, Escherichia coli; conditions: E. coli XL-1 blue MRF'; for MICvanc/MICi: ratio of MIC of vancomycin and MIC of analogue
Procedure: as §2

E. faecalis VSE 1 = assay: MIC, broth microdilution, vancomycin-sensitive E. faecalis (VSE 1); type: cell-based, Enterococcus faecalis; conditions: for MICvanc/MICi / MIC-fold improvement vs. vancomycin: ratio of MIC of vancomycin and MIC of analogue; for MIC: read-out: MIC; for MIC-fold improvement vs. vancomycin: VSE 1
Outline: as §1

E. faecalis VRE 6 = assay: MIC, broth microdilution, vancomycin-resistant E. faecalis VRE 6 (VanA); type: cell-based, Enterococcus faecalis; conditions: for MICvanc/MICi / MIC-fold improvement vs. vancomycin: ratio of MIC of vancomycin and MIC of analogue; for MIC: read-out: MIC; for MIC-fold improvement vs. vancomycin: VRE 6
Outline: as §1

MRSA KS1 = assay: MIC, broth microdilution, MRSA KS1; type: cell-based, Staphylococcus aureus; conditions: for MIC-fold improvement vs. vancomycin: MRSA KS1, ratio of MIC of vancomycin and MIC of analogue; for MIC: Staphylococcus aureus MRSA KS1, read-out: MIC
Outline: as §1

[1] = test system: human T-lymphocyte (CEM) cells; assay: Cytostatic activity, CEM cell proliferation; type: cell-based; conditions: mean ± SD of three experiments; highest concentration tested 250 µM; 3 days; read-out: Toxicity (IC50) CEM
Outline: (§3)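 Coulter counter cell counts after 37°C culture with compound; IC50 = concentration giving 50% growth inhibition vs negative control. Incubation: L1210 2 d, CEM 3 d, HeLa 4 d. Suspension density before mixing with an equal volume of dilution: 300,000–500,000 cells/mL.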

S. aureus VISA/HIP5827 = assay: MIC, broth microdilution, vancomycin-intermediate S. aureus VISA HIP5827; type: cell-based, Staphylococcus aureus; conditions: for MIC: Staphylococcus aureus VISA/HIP5827, read-out: MIC; for MIC-fold improvement vs. vancomycin: VISA/HIP5827, ratio of MIC of vancomycin and MIC of analogue
Outline: as §1

E. faecalis VRE 29 = assay: MIC, broth microdilution, vancomycin-resistant E. faecalis VRE 29 (VanA); type: cell-based, Enterococcus faecalis; conditions: for MIC: Enterococcus faecalis VRE 29 (vancomycin-resistant), read-out: MIC
Outline: as §1

[2] = test system: S. aureus VSSA (ATCC 6538); assay: MIC, broth microdilution, vancomycin-sensitive S. aureus (VSSA/MSSA, ATCC 6538); type: cell-based, Staphylococcus aureus; conditions: for MIC: Staphylococcus aureus VSSA, read-out: MIC; for MIC-fold improvement vs. vancomycin: VSSA, ratio of MIC of vancomycin and MIC of analogue
Outline: as §1

MRSA KS6 = assay: MIC, broth microdilution, MRSA KS6; type: cell-based, Staphylococcus aureus; conditions: for MIC-fold improvement vs. vancomycin: MRSA KS6, ratio of MIC of vancomycin and MIC of analogue; for MIC: Staphylococcus aureus MRSA KS6, read-out: MIC
Outline: as §1

S. aureus VRSA = assay: MIC, broth microdilution, vancomycin-resistant S. aureus (VRSA); type: cell-based, Staphylococcus aureus; conditions: for MIC: Staphylococcus aureus VRSA, read-out: MIC; for MIC-fold improvement vs. vancomycin: VRSA, ratio of MIC of vancomycin and MIC of analogue
Outline: as §1

[3] = test system: Murine leukemia (L1210) cells; assay: Cytostatic activity, L1210 cell proliferation; type: cell-based; conditions: mean ± SD of three experiments; highest concentration tested 250 µM; 2 days; read-out: Toxicity (IC50) L1210
Outline: as §3

MRSA KS2 = assay: MIC, broth microdilution, MRSA KS2; type: cell-based, Staphylococcus aureus; conditions: for MIC-fold improvement vs. vancomycin: MRSA KS2, ratio of MIC of vancomycin and MIC of analogue; for MIC: Staphylococcus aureus MRSA KS2, read-out: MIC
Outline: as §1

E. faecalis VRE 37 = assay: MIC, broth microdilution, vancomycin-resistant E. faecalis VRE 37 (VanA); type: cell-based, Enterococcus faecalis; conditions: for MIC: Enterococcus faecalis VRE 37 (vancomycin-resistant), read-out: MIC
Outline: as §1

[4] = test system: human cervix carcinoma (HeLa) cells; assay: Cytostatic activity, HeLa cell proliferation; type: cell-based; conditions: mean ± SD of three experiments; highest concentration tested 250 µM; 4 days; read-out: Toxicity (IC50) HeLa
Outline: as §3

[5] = test system: L1210, CEM and HeLa cell lines; assay: Cytostatic activity, average or summary over L1210, CEM and HeLa; type: cell-based; conditions: average of L1210, CEM and HeLa; read-out: Toxicity (IC50) Average
Outline: as §3

MRSA KS89 = assay: MIC, broth microdilution, MRSA KS89; type: cell-based, Staphylococcus aureus; conditions: for MIC-fold improvement vs. vancomycin: MRSA KS8, ratio of MIC of vancomycin and MIC of analogue; for MIC: Staphylococcus aureus MRSA KS8, read-out: MIC
Outline: as §1

[6] = test system: Clostridium difficile AIU ribotype 027; assay: MIC, plate drop assay, C. difficile AIU ribotype 027; type: cell-based; conditions: C. difficile AIU ribotype 027
Procedure: (§4) Bacterial lawns of both C. difficile strains were prepared by adding 0.5 mL overnight culture to 8 mL sloppy BHI agar (0.4% agar) supplemented with 1.5 g/L CaCl2⋅2H2O and 81.2 g/L MgCl2⋅6H2O, and pouring the mixture into Petri plates. A twofold dilution series of the selected vancomycin analogs, vancomycin ([…]) and daptomycin (25 μM) was spotted (10 μL) on the bacterial lawn. Spots were air-dried and the plates were incubated overnight at 37°C in an anaerobic cabinet. Ultrapure water was included as negative control. The assay was performed in triplicate. Inhibition was observed by cleared spots.

[7] = test system: Clostridium difficile ATJ ribotype 014/20; assay: MIC, plate drop assay, C. difficile ATJ ribotype 014/20; type: cell-based; conditions: C. difficile ATJ ribotype 014/20
Procedure: as §4

[8] = Enterococcus faecalis VRE 53 (vancomycin-resistant)
[9] = Enterococcus faecalis VSE 1 (vancomycin-sensitive)
[10] = Enterococcus faecalis VRE 6 (vancomycin-resistant)

| SMILES | MICvanc/MICi (E. faecalis VRE 53; E. faecalis VRE 53) | MIC (E. faecalis VRE 53; E. faecalis VRE 53) [µM] | MIC (B. subtilis PSB3) [µM] | MICvanc/MICi (B. subtilis PSB3) | MIC (E. coli XL-1 blue MRF') [µM] | MICvanc/MICi (E. coli XL-1 blue MRF') | MICvanc/MICi (E. faecalis VSE 1; E. faecalis VSE 1) | MIC (E. faecalis VSE 1; E. faecalis VSE 1) [µM] | MICvanc/MICi (E. faecalis VRE 6; E. faecalis VRE 6) | MIC (E. faecalis VRE 6; E. faecalis VRE 6) [µM] | MIC-fold improvement vs. vancomycin (MRSA KS1) | MIC (MRSA KS1) [µM] | IC50 [1] [µM] | MIC (S. aureus VISA/HIP5827) [µM] | MIC-fold improvement vs. vancomycin (S. aureus VISA/HIP5827) | MIC (E. faecalis VRE 29) [µM] | MIC [2] [µM] | MIC-fold improvement vs. vancomycin [2] | MIC (E. faecalis VRE 53; [8]) [µM] | MIC-fold improvement vs. vancomycin (E. faecalis VRE 53) | further results |
| --- | --- | --- | --- | --- | --- | --- | --- | --- | --- | --- | --- | --- | --- | --- | --- | --- | --- | --- | --- | --- | --- |
| C#CCNC(=O)[C@H]1NC(=O)[C@H]2NC(=O)[C@H](NC(=O)[C@@H]3NC(=O)[C@H](CC(N)=O)NC(=O)[C@H](NC(=O)[C@@H](CC(C)C)NC)[C@H](O)c4ccc(c(Cl)c4)Oc4cc3cc(c4O[C@@H]3O[C@H](CO)[C@@H](O)[C@H](O)[C@H]3O[C@H]3C[C@](C)(N)[C@H](O)[C@H](C)O3)Oc3ccc(cc3Cl)[C@H]2O)c2ccc(O)c(c2)-c2c(O)cc(O)cc21 [Vanc-G] | 8 | 50 (≈ 74.3 µg/mL) | 0.78 (≈ 1.16 µg/mL) | 0.5 | 12.5 (≈ 18.6 µg/mL) | 8 | 4 | 0.39 (≈ 0.58 µg/mL) | 2 | 100 (≈ 149 µg/mL) |  |  |  |  |  |  |  |  |  |  |  |
| C#Cc1ccc2cc(C(=O)NCCCNC(=O)[C@H]3NC(=O)[C@H]4NC(=O)[C@H](NC(=O)[C@@H]5NC(=O)[C@H](CC(N)=O)NC(=O)[C@H](NC(=O)[C@@H](CC(C)C)NC)[C@H](O)c6ccc(c(Cl)c6)Oc6cc5cc(c6O[C@@H]5O[C@H](CO)[C@@H](O)[C@H](O)[C@H]5O[C@H]5C[C@](C)(N)[C@H](O)[C@H](C)O5)Oc5ccc(cc5Cl)[C@H]4O)c4ccc(O)c(c4)-c4c(O)cc(O)cc43)ccc2c1 [Vanc-T] | 128 | 3.13 (≈ 5.27 µg/mL) | 0.39 (≈ 0.657 µg/mL) | 1 | 25 (≈ 42.1 µg/mL) | 4 | 32 | 0.05 (≈ 0.0842 µg/mL) | 64 | 3.13 (≈ 5.27 µg/mL) | 4 | 0.20 (≈ 0.337 µg/mL) | 60 ± 10 | 1.56 (≈ 2.63 µg/mL) | 4 | 12.5 (≈ 21 µg/mL) | 0.10 (≈ 0.168 µg/mL) | 8 | 3.13 (≈ 5.27 µg/mL) | 128 | MIC-fold improvement vs. vancomycin (E. faecalis VRE 29; VRE 29, ratio of MIC of vancomycin and MIC of analogue): 32; MIC-fold improvement vs. vancomycin (MRSA KS6): 2; MIC (MRSA KS6): 0.39 µM (≈ 0.657 µg/mL); MIC (S. aureus VRSA): 1.56 µM (≈ 2.63 µg/mL); MIC-fold improvement vs. vancomycin (S. aureus VRSA): 64; IC50 [3]: 77 ± 17 µM; MIC-fold improvement vs. vancomycin (MRSA KS2): 4; MIC (MRSA KS2): 0.20 µM (≈ 0.337 µg/mL); MIC (E. faecalis VRE 37): 25 µM (≈ 42.1 µg/mL); IC50 [4]: 75 ± 20 µM; IC50 [5]: 71 µM; MIC-fold improvement vs. vancomycin (MRSA KS89): 4; MIC (MRSA KS89): 0.20 µM (≈ 0.337 µg/mL); MIC (E. faecalis VSE 1; [9]): 0.05 µM (≈ 0.0842 µg/mL); MIC-fold improvement vs. vancomycin (E. faecalis VSE 1): 32; MIC (E. faecalis VRE 6; [10]): 3.13 µM (≈ 5.27 µg/mL); MIC-fold improvement vs. vancomycin (E. faecalis VRE 6): 64 |
| CN[C@H](CC(C)C)C(=O)N[C@H]1C(=O)N[C@@H](CC(N)=O)C(=O)N[C@H]2C(=O)N[C@H]3C(=O)N[C@H](C(=O)N[C@H](C(=O)NCC(=O)Nc4ccc(Cl)cc4Cl)c4cc(O)cc(O)c4-c4cc3ccc4O)[C@H](O)c3ccc(c(Cl)c3)Oc3cc2cc(c3O[C@@H]2O[C@H](CO)[C@@H](O)[C@H](O)[C@H]2O[C@H]2C[C@](C)(N)[C@H](O)[C@H](C)O2)Oc2ccc(cc2Cl)[C@H]1O [Vanc-14] |  |  |  |  |  |  |  |  |  |  | 2 | 0.39 (≈ 0.644 µg/mL) | 114 ± 18 | 0.10 (≈ 0.165 µg/mL) | 64 | 3.13 (≈ 5.17 µg/mL) | 0.20 (≈ 0.33 µg/mL) | 4 | 3.13 (≈ 5.17 µg/mL) | 128 | MIC-fold improvement vs. vancomycin (MRSA KS6): 2; MIC (MRSA KS6): 0.39 µM (≈ 0.644 µg/mL); MIC (S. aureus VRSA): 3.13 µM (≈ 5.17 µg/mL); MIC-fold improvement vs. vancomycin (S. aureus VRSA): 32; MIC-fold improvement vs. vancomycin [6]: 29; IC50 [3]: 153 ± 55 µM; MIC-fold improvement vs. vancomycin [7]: 22; MIC-fold improvement vs. vancomycin (MRSA KS2): 4; MIC (MRSA KS2): 0.20 µM (≈ 0.33 µg/mL); MIC (E. faecalis VRE 37): 6.25 µM (≈ 10.3 µg/mL); MIC-fold improvement vs. vancomycin (E. faecalis VRE 37; VRE 37, ratio of MIC of vancomycin and MIC of analogue): 128; IC50 [4]: 148 ± 6 µM; IC50 [5]: 138 µM; MIC-fold improvement vs. vancomycin (MRSA KS89): 4; MIC (MRSA KS89): 0.20 µM (≈ 0.33 µg/mL); MIC (E. faecalis VSE 1; [9]): 0.20 µM (≈ 0.33 µg/mL); MIC-fold improvement vs. vancomycin (E. faecalis VSE 1): 8; MIC (E. faecalis VRE 6; [10]): 1.56 µM (≈ 2.57 µg/mL); MIC-fold improvement vs. vancomycin (E. faecalis VRE 6): 128 |
